Patent US20240174662A1, “SMALL MOLECULE INHIBITORS OF SALT INDUCIBLE KINASES” (Janssen Biotech, Inc., priority 2021, published 2024)

The compounds below were run against SIK2 (Homo sapiens (Human), UniProt Q9H0K1) (assay: SIK2 Enzymatic Assay Version 2 (High ATP)). Conditions: 3 mM ATP and 200 μM HDAC5tide final, ADP-Glo Max luminescence.
Type: biochemical
How it was run: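 Luminescent ADP-Glo Max read-out: depletion reagent 2 h, then detection reagent 1 h. Before the reaction, compounds were incubated 30 min with enzyme added at 6 nM (twice final concentration), with all steps at room temperature.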

SIK2, sequence (Q9H0K1 whole entry, species assumed): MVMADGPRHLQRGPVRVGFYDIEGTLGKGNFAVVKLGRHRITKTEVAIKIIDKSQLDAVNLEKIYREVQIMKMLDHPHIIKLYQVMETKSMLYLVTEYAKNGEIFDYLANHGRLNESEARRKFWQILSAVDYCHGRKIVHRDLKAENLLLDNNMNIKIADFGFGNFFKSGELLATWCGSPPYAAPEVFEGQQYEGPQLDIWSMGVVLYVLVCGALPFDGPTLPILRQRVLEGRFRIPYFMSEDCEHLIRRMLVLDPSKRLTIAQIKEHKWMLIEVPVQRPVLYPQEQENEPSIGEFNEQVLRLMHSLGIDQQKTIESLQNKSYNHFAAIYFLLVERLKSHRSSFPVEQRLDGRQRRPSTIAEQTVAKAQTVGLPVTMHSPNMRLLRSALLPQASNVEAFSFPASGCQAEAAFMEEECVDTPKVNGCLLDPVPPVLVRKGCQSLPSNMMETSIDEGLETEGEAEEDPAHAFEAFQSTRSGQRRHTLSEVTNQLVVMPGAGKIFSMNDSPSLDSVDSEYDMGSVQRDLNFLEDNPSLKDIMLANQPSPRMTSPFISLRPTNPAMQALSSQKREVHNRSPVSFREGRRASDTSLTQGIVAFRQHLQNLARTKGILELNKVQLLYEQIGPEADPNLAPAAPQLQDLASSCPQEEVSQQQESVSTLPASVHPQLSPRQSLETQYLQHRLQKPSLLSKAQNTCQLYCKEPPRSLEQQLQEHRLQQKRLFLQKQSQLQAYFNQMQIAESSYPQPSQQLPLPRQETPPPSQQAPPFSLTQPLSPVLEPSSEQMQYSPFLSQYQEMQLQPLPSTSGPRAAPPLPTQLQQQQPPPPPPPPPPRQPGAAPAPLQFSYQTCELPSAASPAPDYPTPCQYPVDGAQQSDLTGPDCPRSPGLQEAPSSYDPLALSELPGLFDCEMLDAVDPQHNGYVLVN

SMILES	IC50
Cc1onc(OC[C@H]2NCC2(C)C)c1-c1ccn2nc(NC(=O)C3CC3)cc2c1 [Example 89, N-[5-[3-[[(2S)-3,3-dimethylazetidin-2-yl]methoxy]-5-methyl-isoxazol-4-yl]pyrazolo[1,5-a]pyridin-2-yl]cyclopropanecarboxamide]	15.9 nM
Cc1cc(Nc2cc3cc(-c4c(O[C@@H]5CN[C@H](C)C5)noc4C)ccn3n2)nc(C)n1 [Example 90, N-(2,6-dimethylpyrimidin-4-yl)-5-[5-methyl-3-[(3S,5R)-5-methylpyrrolidin-3-yl]oxy-isoxazol-4-yl]pyrazolo[1,5-a]pyridin-2-amine]	14.4 nM
Cc1cc(Nc2cc3cc(-c4c(OC[C@H]5CCN5C)noc4C)ccn3n2)nc(C)n1 [Example 91, N-(2,6-dimethylpyrimidin-4-yl)-5-[5-methyl-3-[[(2R)-1-methylazetidin-2-yl]methoxy]isoxazol-4-yl]pyrazolo[1,5-a]pyridin-2-amine]	6.4 nM
Cc1cc(Nc2cc3cc(-c4c(O[C@@H]5CNC[C@@H]5F)noc4C)ccn3n2)nnc1C [Example 93, N-(5,6-dimethylpyridazin-3-yl)-5-[3-[(3R,4S)-4-fluoropyrrolidin-3-yl]oxy-5-methyl-isoxazol-4-yl]pyrazolo[1,5-a]pyridin-2-amine]	4.7 nM
CO[C@H]1CNC[C@H]1Oc1noc(C)c1-c1ccn2nc(Nc3cc(C)c(C)nn3)cc2c1 [Example 95, N-(5,6-dimethylpyridazin-3-yl)-5-[3-[(3R,4S)-4-methoxypyrrolidin-3-yl]oxy-5-methyl-isoxazol-4-yl]pyrazolo[1,5-a]pyridin-2-amine]	5.3 nM
Cc1ccc(Nc2cc3cc(-c4c(OC[C@H]5CCN5C)cnn4C(F)F)ccn3n2)nn1 [Example 98, 5-[2-(difluoromethyl)-4-[[(2R)-1-methylazetidin-2-yl]methoxy]pyrazol-3-yl]-N-(6-methylpyridazin-3-yl)pyrazolo[1,5-a]pyridin-2-amine]	7.9 nM
Cc1cc(Nc2cc3cc(-c4c(OC[C@H]5CCN5C)cnn4C)ccn3n2)nc(C(F)F)n1 [Example 102, N-[2-(difluoromethyl)-6-methyl-pyrimidin-4-yl]-5-[2-methyl-4-[[(2R)-1-methylazetidin-2-yl]methoxy]pyrazol-3-yl]pyrazolo[1,5-a]pyridin-2-amine]	< 0.847 nM

The remaining lines, values ahead:

IC50	SMILES
4.3 nM	Cc1cc(Nc2cc3cc(-c4c(O[C@@H]5CNC[C@@H]5F)noc4C)ccn3n2)nc(C)n1 [Example 92, N-(2,6-dimethylpyrimidin-4-yl)-5-[3-[(3R,4S)-4-fluoropyrrolidin-3-yl]oxy-5-methyl-isoxazol-4-yl]pyrazolo[1,5-a]pyridin-2-amine]
10.3 nM	CO[C@H]1CNC[C@H]1Oc1noc(C)c1-c1ccn2nc(Nc3cc(C)nc(C)n3)cc2c1 [Example 94, N-(2,6-dimethylpyrimidin-4-yl)-5-[3-[(3R,4S)-4-methoxypyrrolidin-3-yl]oxy-5-methyl-isoxazol-4-yl]pyrazolo[1,5-a]pyridin-2-amine]
6.8 nM	CO[C@H]1CNC[C@H]1Oc1cnn(C(F)F)c1-c1ccn2nc(Nc3cc(C)nc(C)n3)cc2c1 [Example 96, 5-[2-(difluoromethyl)-4-[(3R,4S)-4-methoxypyrrolidin-3-yl]oxy-pyrazol-3-yl]-N-(2,6-dimethylpyrimidin-4-yl)pyrazolo[1,5-a]pyridin-2-amine]
2.9 nM	COc1nnc(Nc2cc3cc(-c4c(OC[C@H]5CCN5C)cnn4C(F)F)ccn3n2)cc1C [Example 97, 5-[2-(difluoromethyl)-4-[[(2R)-1-methylazetidin-2-yl]methoxy]pyrazol-3-yl]-N-(6-methoxy-5-methyl-pyridazin-3-yl)pyrazolo[1,5-a]pyridin-2-amine]
10.9 nM	Cc1cc(Nc2cc3cc(-c4c(OC[C@H]5OCC[C@@H]5O)cnn4C(F)F)ccn3n2)nc(C)n1 [Example 99, (2R,3S)-2-[[1-(difluoromethyl)-5-[2-[(2,6-dimethylpyrimidin-4-yl)amino]pyrazolo[1,5-a]pyridin-5-yl]pyrazol-4-yl]oxymethyl]tetrahydrofuran-3-ol]
